# Experimental data taken from US8822455B2, “Fused aminodihydrothiazine derivatives” (Eisai R&D Management Co., Ltd., priority 2011, dated 2014).
# System: Aβ42
# Test: In vitro cellular assay (Aβ42): quantification of Aβ peptide in culture of neurons from rat fetus brain (ELISA)
# Type: cell-based
# Details: Primary cortical neuron, 72 h, rat primary cortical neurons (embryonic day 18 Wistar), 3 days after addition of compound, read-out: Cell IC50
# Procedure: In vitro Cellular Assay (Aβ42):
# Quantification of AβPeptide in Culture of Neurons from Rat Fetus Brain
# (1) Rat Primary Neuronal Culture
# Primary neuronal cultures were prepared from the cerebral cortex of embryonic day 18 Wistar rats (Charles River, UK). Specifically, the embryos were aseptically removed from pregnant rats under ether anesthesia. The brain was isolated from the embryo and immersed in HBSS (Sigma Aldrich #H9269) containing 10 mM HEPES (Gibco #15630-056). The cerebral cortex was collected from the isolated brain under a stereoscopic microscope. The cerebral cortex fragments collected were enzymatically treated in an enzyme solution containing 0.05% trypsin-EDTA solution (GIBCO, #25300) at 37° C. for 20 minutes to disperse the cells. The cells were then washed twice and then gently resuspended in Neurobasal medium (Gibco #21103) supplemented with 2% B27 supplement (GIBCO #17504-044), 0.5 mM L-glutamine (GIBCO #25030), 1×N2 (GIBCO #17502-048), 100 ug/ml Pen/Strep (GIBCO 15140-122) and 5% heat inactivated FCS (PAA #A15-701). The cell dispersion was filtered through a 40-μm nylon mesh (BD Falcon #352340) to remove the remaining cell mass, and thus a neuronal cell suspension was obtained. The neuronal cell suspension was diluted with the medium above and then plated in a volume of 100 μL/well at an initial cell density of 3.25×10^5 cells/ml in poly-D-lysine coated 96-well culture plate (Greiner #655940). The plated cells were cultured in the culture plate at 37° C. in 5% CO2-95% air for 24 hrs. The total amount of the medium was replaced with ‘assay Neurobasal medium’ (as above excluding heat inactivated FCS), and then the cells were cultured for a further five days.
# The drug was added to the culture plate on Day 6 of culture as follows. 8 point compound serial dilutions were generated in DMSO at a concentration of ×1000 that of the final assay concentration (FAC). Compound solutions were then prepared by adding 999 ul of ‘Assay Neurobasal media’ (as described in above section) to 1 ul of DMSO compound stock. The total amount of the medium was removed from each of the cell plate wells, and 200 μL/well of compound solution was added. The final DMSO concentration was 0.1%.
# The cells were cultured for either 1 or 3 days after addition of the compound for ABx-40 and ABx-42 assays respectively. 150 μl of sample medium was collected and used as the ELISA sample.
# Human/Rat β Amyloid (42) ELISA Kit Wako (#290-62601) and Human/Rat β Amyloid (40) ELISA Kit Wako (#294-62501) from Wako Pure Chemical Industries, Ltd. were used for Aβ ELISA Aβ ELISA was carried out according to the protocols recommended by the manufacturers, described in the documents accompanying the kits. The results were shown as percentage of the control groups and IC50 values for each compound were determined using four parameter logistic fit model using the XLFIT5 software package (IDBS).
row,Structure (SMILES),IC50 [nM]
1,"CC#Cc1cncc(-c2ccc(F)c([C@]34CO[C@H](C)[C@H]3CSC(N)=N4)c2)c1 [Example 19, (4aS,5R,7aS)-7a-(2-fluoro-5-(5-(prop-1-yn-1-yl)pyridin-3-yl)phenyl)-5-methyl-4a 5,7,7a-tetrahydro-4H-furo[3,4-d][1,3]thiazin-2-amine]",17
2,NC1=N[C@@]2(c3cc(-c4cccnc4F)c(F)cc3F)CO[C@H](CF)[C@H]2CS1 [Example 28],46
3,"Cc1cncc(-c2ccc(F)c([C@]34CO[C@H](C)[C@H]3CSC(N)=N4)c2)c1 [Example 15, (4aS,5R,7aS)-7a-(2-Fluoro-5-(5-methylpyridin-3-yl)phenyl)-5-methyl-4a,5,7,7a-tetrahydro-4H-furo[3,4-d][1,3]thiazin-2-amine]",101
4,"C[C@H]1OC[C@]2(c3cc(-c4cncc(C#N)c4)ccc3F)N=C(N)SC[C@H]12 [Example 13, 5-(3-((4aS,5R,7aS)-2-Amino-5-methyl-4a,5,7,7a-tetrahydro-4H-furo[3,4-d][1,3]thiazin-7a-yl)-4-fluorophenyl)nicotinonitrile]",62
5,"C[C@H]1OC[C@]2(c3cc(-c4cccnn4)ccc3F)N=C(N)SC[C@H]12 [Example 23, (4aS,5R,7aS)-7a-(2-fluoro-5-(pyridazin-3-yl)phenyl)-5-methyl-4a,5,7,7a-tetrahydro-4H-furo[3,4-d][1,3]thiazin-2-amine]",572
6,"C[C@H]1OC[C@]2(c3cc(-c4cc(F)ccc4F)ccc3F)N=C(N)SC[C@H]12 [Example 12, (4aS,5R,7aS)-5-Methyl-7a-(2′,4,5′-trifluoro-[1,1′-biphenyl]-3-yl)-4a,5,7,7a-tetrahydro-4H-furo[3,4-d][1,3]thiazin-2-amine]",114
7,"COc1cncc(-c2cc([C@]34CO[C@H](CF)[C@H]3CSC(N)=N4)c(F)cc2F)c1 [Example 29, (4aS,5S,7aS)-7a-(2,4-difluoro-5-(5-methoxypyridin-3-yl)phenyl)-5-(fluoromethyl)-4a,5,7,7a-tetrahydro-4H-furo[3,4-d][1,3]thiazin-2-amine]",15
8,"C[C@H]1OC[C@]2(c3cc(-c4cncc(C(F)(F)F)c4)ccc3F)N=C(N)SC[C@H]12 [Example 14, (4aS,5R,7aS)-7a-(2-Fluoro-5-(5-(trifluoromethyl)pyridine-3-yl)phenyl)-5-methyl-4a,5,7,7a-tetrahydro-4H-furo[3,4-d][1,3]thiazin-2-amine]",136
9,"COc1cncc(-c2ccc(F)c([C@]34CO[C@H](C)[C@H]3CSC(N)=N4)c2)c1 [Example 8, (4aS,5R,7aS)-7a-(2-fluoro-5-(5-methoxypyridin-3-yl)phenyl)-5-methyl-4a,5,7,7a-tetrahydro-4H-furo[3,4-d][1,3]thiazin-2-amine]",23
10,"C[C@H]1OC[C@]2(c3cc(-c4ccc(F)nc4)ccc3F)N=C(N)SC[C@H]12 [Example 10, (4aS,5R,7aS)-7a-(2-Fluoro-5-(6-fluoropyridin-3-yl)phenyl)-5-methyl-4a,5,7,7a-tetrahydro-4H-furo[3,4-d][1,3]thiazin-2-amine]",94
11,"C[C@H]1OC[C@]2(c3cc(-c4cnccn4)ccc3F)N=C(N)SC[C@H]12 [Example 22, (4aS,5R,7aS)-7a-(2-fluoro-5-(pyrazin-2-yl)phenyl)-5-methyl-4a,5,7,7a-tetrahydro-4H-furo[3,4-d][1,3]thiazin-2-amine]",55
12,"Cc1cnc(F)c(-c2ccc(F)c([C@]34CO[C@H](C)[C@H]3CSC(N)=N4)c2)c1 [Example 16, (4aS,5R,7aS)-7a-(2-fluoro-5-(2-fluoro-5-methylpyridin-3-yl)phenyl)-5-methyl-4a,5,7,7a-tetrahydro-4H-furo[3,4-d][1,3]thiazin-2-amine]",58
13,"COc1cccc(-c2ccc(F)c([C@]34CO[C@H](C)[C@H]3CSC(N)=N4)c2)n1 [Example 24, (4aS,5R,7aS)-7a-(2-fluoro-5-(6-methoxypyridin-2-yl)phenyl)-5-methyl-4a,5,7,7a-tetrahydro-4H-furo[3,4-d][1,3]thiazin-2-amine]",> 1000
14,"C[C@H]1OC[C@]2(c3cc(-c4ccccc4)ccc3F)N=C(N)SC[C@H]12 [Example 5, (4aS,5R,7aS)-7a-(4-Fluoro-[1,1′-biphenyl]-3-yl)-5-methyl-4a,5,7,7a-tetrahydro-4H-furo[3,4-d][1,3]thiazin-2-amine]",450
15,"C[C@H]1OC[C@]2(c3cc(-c4cncc(F)c4)ccc3F)N=C(N)SC[C@H]12 [Example 9, (4aS,5R,7aS)-7a-(2-Fluoro-5-(5-fluoropyridin-3-yl)phenyl)-5-methyl-4a,5,7,7a-tetrahydro-4H-furo[3,4-d][1,3]thiazin-2-amine]",60
16,"C[C@H]1OC[C@]2(c3cc(-c4cccnc4F)ccc3F)N=C(N)SC[C@H]12 [Example 7, (4aS,5R,7aS)-7a-(2-Fluoro-5-(2-fluoropyridin-3-yl)phenyl)-5-methyl-4a,5,7,7a-tetrahydro-4H-furo[3,4-d][1,3]thiazin-2-amine]",62
17,"Cc1ncccc1-c1ccc(F)c([C@]23CO[C@H](C)[C@H]2CSC(N)=N3)c1 [Example 18, (4aS,5R,7aS)-7a-(2-fluoro-5-(2-methylpyridin-3-yl)phenyl)-5-methyl-4a,5,7,7a-tetrahydro-4H-furo[3,4-d][1,3]thiazin-2-amine]",217
18,"C[C@H]1OC[C@]2(c3cc(-c4cncnc4)c(F)cc3F)N=C(N)SC[C@H]12 (relative stereo) [Example 31, (4aS*,5R*,7aS*)-7a-(2,4-Difluoro-5-(pyrimidin-5-yl)phenyl)-5-methyl-4a,5,7,7a-tetrahydro-4H-furo[3,4-d][1,3]thiazin-2-amine]",20
19,"C[C@H]1OC[C@]2(c3cc(-c4cccnc4)ccc3F)N=C(N)SC[C@H]12 [Example 4, (4aS,5R,7aS)-7a-(2-Fluoro-5-(pyridin-3-yl)phenyl)-5-methyl-4a,5,7,7a-tetrahydro-4H-furo[3,4-d][1,3]thiazin-2-amine]",106
20,"C[C@H]1OC[C@]2(c3cc(-c4ccccc4F)ccc3F)N=C(N)SC[C@H]12 [Example 6, (4aS,5R,7aS)-7a-(2′,4-difluoro-[1,1′-biphenyl]-3-yl)-5-methyl-4a,5,7,7a-tetrahydro-4H-furo[3,4-d][1,3]thiazin-2-amine]",244
21,"C[C@H]1OC[C@]2(c3cc(-c4cncc(OC5CC5)c4)ccc3F)N=C(N)SC[C@H]12 [Example 21, (4aS,5R,7aS)-7a-(5-(5-cyclopropoxypyridin-3-yl)-2-fluorophenyl)-5-methyl-4a,5,7,7a-tetrahydro-4H-furo[3,4-d][1,3]thiazin-2-amine]",127
22,"NC1=N[C@@]2(c3cc(-c4cncnc4)c(F)cc3F)CO[C@H](CF)[C@H]2CS1 [Example 27, (4aS,5S,7aS)-7a-(2,4-Difluoro-5-(pyrimidin-5-yl)phenyl)-5-(fluoromethyl)-4a,5,7,7a-tetrahydro-4H-furo[3,4-d][1,3]thiazin-2-amine]",59
23,"C[C@H]1OC[C@]2(c3cc(-c4ncc[nH]4)ccc3F)N=C(N)SC[C@H]12 [Example 2, (4aS,5R,7aS)-7a-(2-Fluoro-5-(1H-imidazo-2-yl)phenyl)-5-methyl-4a,5,7,7a-tetrahydro-4H-furo[3,4-d][1,3]thiazin-2-amine]",749
24,C[C@H]1OC[C@]2(c3cc(-c4cncc(OC(F)F)c4)ccc3F)N=C(N)SC[C@H]12 [Example 26],64
